Experimental data reported in PMC8558867, “Development of BromoTag: A “Bump-and-Hole”–PROTAC System to Induce Potent, Rapid, and Selective Degradation of Tagged Target Proteins” (Journal of Medicinal Chemistry, 2021).
“And” between values parts separate entries of the source, which are not always exact repeats. Equal values may be shown once. Read-outs that look alike come from different tables or passages of the source.

Assays:
Assay type in all cases: cell-based, human
[1] = tested on: BromoTag-Brd2; experiment: Dose–response degradation assay (western blot, 6 h) in heterozygous BromoTag-Brd2 HEK293 cells; details: 6 h; for DC50: read-out: DC50 of BromoTag-Brd2 degradation (DC50, 6h), single stereoisomers
Procedure: All dose–response degradation assays were performed on the genotype-verified heterozygous BromoTag-Brd2 HEK293 cell line. Heterozygous BromoTag-Brd2 HEK293 cells were plated at a density of 5 × 10^5 cells per well of a six-well healthy plate a day before initiation of the titration experiment. PROTAC compounds were dissolved in DMSO at a concentration of 10 mM; from these stock concentrations, PROTAC compounds were diluted to appropriate concentrations using DMSO in the range of 10 μM to 1 nM. […] Control compounds such as MZ1 and cis-MZ1 were similarly dissolved in DMSO to an appropriate concentration. […] The cells were washed twice with PBS before being harvested.
The membranes were blocked for 1 h prior to incubation with the primary antibodies using 5% Milk TBST. […] Following overnight incubation with the primary antibodies at 4 °C, the membranes were incubated with secondary antibodies (anti-rabbit, Abcam AB216773, 1:5000 or anti-mouse, Abcam AB216774, 1:5000) and hFABTM rhodamine anti-tubulin antibody (Biorad, 12004165, 1:10,000) for 1 h and then imaged with a Bio-Rad imager (LI-COR Biosciences). All western blots were analyzed for band intensities using Image Lab from Bio-Rad (LI-COR, Biosciences). The data extracted from these blots were then plotted and analyzed using Prism (v. 8.2.0, GraphPad).

[2] = tested on: BromoTag-Brd2; experiment: Time course degradation assay (western blot, 0–36 h) in heterozygous BromoTag-Brd2 HEK293 cells; details: 500 nM
Procedure: Heterozygous BromoTag-Brd2 HEK293 cells were plated at a density of 5 × 10^5 cells per well of a six-well healthy plate a day prior to initiating the time course assay. […] The time point range was between 0 and 36 h. Treatment was applied in a staggered fashion to enable all time points to be harvested at the same time.
All cells were harvested on ice with RIPA lysis and extraction buffer (Thermo Fisher Scientific, 89901) supplemented with protease inhibitor cocktail (Merck, 11697498001) and Benzonase Nuclease (Sigma, E1014) before being stored at −20 °C prior to use. Total protein quantity was determined using the BCA protein assay (#23225, Pierce, Rockford, Illinois). The protein concentration was determined using the BCA assay (Thermo Fisher Scientific, 23225). The samples were then prepared and loaded onto NuPAGE 4–12% bis–tris Midi gels (Thermo Fisher Scientific, WG1403A), followed by the transfer of proteins onto nitrocellulose membranes (EMD Millipore). The membranes were blocked for 1 h prior to incubation with the primary antibodies using 5% Milk TBST. […] All western blots were analyzed for band intensities using Image Lab from Bio-Rad (LI-COR, Biosciences). The data extracted from these blots were then plotted and analyzed using Prism (v. 8.2.0, GraphPad).

[3] = tested on: MV-4-11 cells; experiment: CellTiter-Glo 2.0 cell viability assay, MV-4-11; details: MV-4-11, up to 1–10 μM
Procedure: All cell lines were treated with compounds in duplicate (triplicate for DMSO controls) at a 1× concentration in 0.1% DMSO. The compounds were serially diluted to produce a 7-point, 10-fold titration. The cells were treated with 50:100 μL of compound for a final concentration of 10 μM:10 pM in 0.1% DMSO. At the point of spectrometric analysis, cells were treated with 100 μL of Promega CellTiter-Glo 2.0 Cell Viability Assay reagent. The plates were subjected to an orbital shaker for 2 min to encourage lysis and left for a further 5 min to reach peak luminescence. Luminescence was then recorded on a BMG Labtech PHERAstar luminescence plate reader with recommended settings. Data extracted from this analysis was analyzed with GraphPad Prism (v. 8.2.0, GraphPad) and normalized to the DMSO vehicle control. The EC50 values were derived from these plots.

[4] = tested on: proteome of heterozygous BromoTag-Brd2 HEK293 cells; experiment: Multiplexed TMT labeling mass spectrometry proteomics; details: 1 μM, 2 h
Procedure: To do this, we subjected our heterozygous BromoTag-Brd2 HEK293 cell line to a 1 μM treatment of 46, its non-degrading control 52, or vehicle (DMSO) for 2 h prior to harvest. The harvested lysate was then subjected to multiplexed tandem mass tag (TMT) labeling mass spectrometry to enable quantitative and unbiased analysis of protein levels in each condition.
CRISPR-modified BromoTag-Brd2 HEK293 cells (5 × 10^6) were seeded on a […] 24 h before treatment. The cells were treated with either DMSO, 1 μM AGB1, or 1 μM cis-AGB1. After 2 h of treatment, the cells were washed twice with PBS. The cells were lysed in 150 μL of 100 mM TEAB and 5% (w/v) sodium dodecyl sulfate. The lysate was sonicated for 10 s and then centrifuged at 15,000g for 5 min with the supernatant collected post-centrifugation. The samples were then quantified using a micro-BCA protein assay kit (Thermo Fisher Scientific); 300 μg of each sample was then reduced, alkylated, and then digested using the Strap mini protocol (protifi) as described by the manufacturer (protifi) with some modification. The samples were double-digested with trypsin (1:40) first overnight and then for another 6 h with the same ratio (1:40) in 50 mM TEAB buffer. The peptides were quantified using a quantitative fluorometric peptide assay (Thermo Fisher Scientific). […]

[5] = eight-point 10 μM to 1 nM, mean ±S.E. of two repeats

## CC[C@@H](C(=O)OCCOCCOCCOCC(=O)N[C@H](C(=O)N1C[C@H](O)C[C@H]1C(=O)NCc1ccc(-c2scnc2C)cc1)C(C)(C)C)[C@@H]1N=C(c2ccc(Cl)cc2)c2c(sc(C)c2C)-n2c(C)nnc21 [AGB1 (46), (S)-13-((2S,4R)-4-Hydroxy-2-((4-(4-methylthiazol-5-yl)benzyl)carbamoyl)pyrrolidine-1-carbonyl)-14,14-dimethyl-11-oxo-3,6,9-trioxa-12-azapentadecyl (R)-2-((S)-4-(4-chlorophenyl)-2,3,9-trimethyl-6H-thieno[3,2-f][1,2,4]triazolo[4,3-a][1,4]diazepin-6-yl)butanoate]
[1]; [5]
  pDC50 (Ab: Brd^4BD2 L387A): 7.8 ± 0.2
  pDC50 (Ab: BromoTag-Brd2): 7.9 ± 0.1
[1]
  DC50: 12.6 to 14.5 nM
[1]; listed as 46
  DC50: 13 to 15 nM and ~13 nM
[2]
  time to completely degrade BromoTag-Brd2: ≤ 6 h
[3]
  cytotoxicity: lack of cytotoxicity
[4]
  proteins significantly degraded among the 6621 proteins quantified: only Brd2 was shown to be significantly degraded
